Measurements from patent publication US5789542A, “Amphipathic peptides” (Board of Supervisors of Louisiana State University and …, priority 1997, dated 1998).
Where a SMILES comes first, the peptide text is derived from it.

Experiments:
Format in all cases: cell-based
murine cell line 3T12 = experiment: Sublethal concentration, Tryptan blue staining, 3T12 cells; conditions: transformed, immortalized mouse fibroblast cells, thirty minutes at 37° C., highest concentration with at least one nucleus not stained
Method: (§1) Also shown in Table 1 are sublethal concentrations for some of the peptides against the murine cell lines 3T3 and 3T12. Dilutions of peptide were prepared over a range of concentrations. Equal volumes of peptide solution and 250-750 murine cells were mixed together. The cells were incubated for thirty minutes at 37° C. 50 μL of Tryptan blue stain were then added to each well. Under light microscopy, killed cells could be visualized by the fact that their nuclei were stained. The sublethal dose was the highest concentration for which at least one cell nucleus was not stained. (Blank entries in Table 1 correspond to assays that had not been completed as of the date this application is being filed. Values for those entries will be determined in future assays performed in the same manner.)
(§2) P. aeruginosa and E. coli are Gram-negative bacteria, while S. aureus is a Gram-positive bacterium. 3T3 cells are healthy Swiss mouse fibroblast cells, and 3T12 cells are transformed, immortalized mouse fibroblast cells. Thus the novel peptides (at the proper concentrations) have activity against both Gram-negative and Gram-positive bacteria, while not showing activity against mammalian cells. This combination of properties is itself rather unusual in a lytic peptide.

murine cell line 3T3 = experiment: Sublethal concentration, Tryptan blue staining, 3T3 cells; conditions: healthy Swiss mouse fibroblast cells, thirty minutes at 37° C., highest concentration with at least one nucleus not stained
Method: as §1, §2

[1] = system: Pseudomonas aeruginosa ATCC 27853; experiment: Minimum inhibitory concentration by broth microdilution, P. aeruginosa; conditions: 5×10^4 cells, incubated overnight
Method: (§3) Minimum inhibitory concentrations of several of the peptides were measured against E. coli ATCC 25922, Pseudomonas aeruginosa ATCC 27853, and Staphylococcus aureus ATCC 25723. Minimum inhibitory concentrations were obtained by the broth microdilution method. Peptide solutions were prepared over a range of concentrations from 2 μg/mL to 256 μg/mL. 5×10^4 cells were added to the peptide solutions in sterile wells and incubated overnight. Wells in which the organisms grew became turbid. The minimum inhibitory concentration was the lowest concentration that inhibited growth of the organism.
as §2

[2] = system: Staphylococcus aureus ATCC 25723; experiment: Minimum inhibitory concentration by broth microdilution, S. aureus; conditions: 5×10^4 cells, incubated overnight
Method: as §3, §2

E. coli ATCC 25922 = experiment: Minimum inhibitory concentration by broth microdilution, E. coli; conditions: 5×10^4 cells, incubated overnight
Method: as §3, §2

mammalian cell = experiment: Mammalian cell permeation to an exterior fluorescent dye; conditions: ratio to antibacterial concentration

Molecule	Sublethal Concentration, 3T12 (murine cell line 3T12)	Sublethal Concentration, 3T3 (murine cell line 3T3)	Minimum Inhibitory Concentration, P. aeruginosa [1] [µM]	Minimum Inhibitory Concentration, S. aureus [2] [µM]	Minimum Inhibitory Concentration, E. coli (E. coli ATCC 25922) [µM]	Concentration at which mammalian cell permeation to an exterior fluorescent dye begins, relative to concentrations that effectively inhibited bacterial growth (mammalian cell)
COC(=O)[C@H](C)NC(=O)[C@H](CC(C)C)NC(=O)[C@H](CCCCN)NC(=O)[C@H](CCCCN)NC(=O)[C@H](C)NC(=O)[C@H](CC(C)C)NC(=O)[C@H](CCCCN)NC(=O)[C@H](C)NC(=O)[C@H](CC(C)C)NC(=O)[C@H](CCCCN)NC(=O)[C@H](CCCCN)NC(=O)[C@H](C)NC(=O)[C@H](CC(C)C)NC(=O)[C@@H](N)CCCCN [(KLAKKLA)2] (H-KLAKKLAKLAKKLA-OMe)	788 µM	394 µM	–	–	–	–
CC(C)C[C@H](NC(=O)[C@H](CCCCN)NC(=O)[C@H](C)NC(=O)[C@H](CC(C)C)NC(=O)[C@H](CCCCN)NC(=O)[C@H](CCCCN)NC(=O)[C@H](C)NC(=O)[C@H](CC(C)C)NC(=O)[C@H](CCCCN)NC(=O)[C@H](C)NC(=O)[C@H](CC(C)C)NC(=O)[C@H](CCCCN)NC(=O)[C@H](CCCCN)NC(=O)[C@H](C)NC(=O)[C@H](CC(C)C)NC(=O)[C@H](CCCCN)NC(=O)[C@H](C)NC(=O)[C@H](CC(C)C)NC(=O)[C@@H](N)CCCCN)C(=O)N[C@@H](C)C(=O)N[C@@H](CCCCN)C(N)=O [(KLAKLAK)3]	–	–	3.7	3.7	3.7	–
COC(=O)[C@H](C)NC(=O)[C@H](CC(C)C)NC(=O)[C@H](CCCCN)NC(=O)[C@H](CCCCN)NC(=O)[C@H](C)NC(=O)[C@H](CC(C)C)NC(=O)[C@H](CCCCN)NC(=O)[C@H](C)NC(=O)[C@H](CC(C)C)NC(=O)[C@H](CCCCN)NC(=O)[C@H](CCCCN)NC(=O)[C@H](C)NC(=O)[C@H](CC(C)C)NC(=O)[C@@H](N)CCCCN [Peptide 14-mer, (KLAKKLA)2 -OCH3] (H-KLAKKLAKLAKKLA-OMe)	–	–	–	–	–	about 50 times
CC[C@H](C)[C@H](NC(=O)CN)C(=O)NCC(=O)N[C@@H](C)C(=O)N[C@H](C(=O)N[C@@H](CC(C)C)C(=O)N[C@@H](CCCCN)C(=O)N[C@H](C(=O)N[C@@H](CC(C)C)C(=O)N[C@H](C(=O)N[C@H](C(=O)NCC(=O)N[C@@H](CC(C)C)C(=O)N1CCC[C@H]1C(=O)N[C@@H](C)C(=O)N[C@@H](CC(C)C)C(=O)N[C@H](C(=O)N[C@@H](CO)C(=O)N[C@@H](Cc1c[nH]c2ccccc12)C(=O)N[C@H](C(=O)N[C@@H](CCCCN)C(=O)N[C@@H](CCCNC(=N)N)C(=O)N[C@@H](CCCCN)C(=O)N[C@@H](CCCNC(=N)N)C(=O)N[C@@H](CCC(N)=O)C(=O)N[C@@H](CCC(N)=O)C(N)=O)[C@@H](C)CC)[C@@H](C)CC)[C@@H](C)O)[C@@H](C)O)C(C)C)C(C)C [melittin, reference compound]	0.78 µM	0.78 µM	2.3	0.56	0.56	–
(KALKALK)3	–	–	3.9	7.8	3.9	–
(KLAKKLA)	N.L.	N.L.	> 100	> 100	> 100	–
(KLAKKLA)3 (KLAKKLAKLAKKLAKLAKKLA)	17 µM	9 µM	4.2	4.2	4.2	–
(KLAKKLA)4 (KLAKKLAKLAKKLAKLAKKLAKLAKKLA)	52 µM	13 µM	9.0	9.0	9.0	–
(KLAKLAK)	–	–	> 95	> 95	> 95	–
(KLAKLAK)2 (KLAKLAKKLAKLAK)	–	–	5.8	5.8	5.8	–
(KLAKLAK)4 (KLAKLAKKLAKLAKKLAKLAKKLAKLAK)	–	–	9.4	9.4	9.4	–
(KLGKKLG)3 (KLGKKLGKLGKKLGKLGKKLG)	565 µM	565 µM	3.4	3.4	3.4	–
cecropin B (KWKVFKKIEKMGRNIRNGIVKAGPAIAVLGEAKAL; UniProt P01508 27-61, looked up) [naturally occurring lytic peptide used for comparison, reference compound]	–	–	0.20	1.7	0.20	–
magainin 2 (KLGKKLGKLGKKLGKLGKKLG) [naturally occurring lytic peptide used for comparison, reference compound]	–	–	0.65	1.3	1.3	–
